Reference: PubChem BioAssay (NCI)
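Protocol summary: plate cells (96-well), add compound at 5 concentrations, incubate 48 h, interpolate endpoints linearly. GI50 marks 50% less growth. At the TGI there is no net growth.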

Key:
Assay in all cases: DTP human tumour cell line panel, 48 h
[1] = tested on: EKVX NSCLC
[2] = tested on: SR leukemia
[3] = tested on: NCI/ADR-RES ovarian
[4] = tested on: K-562 leukemia
[5] = tested on: MDA-MB-231 breast
[6] = tested on: M14 melanoma
[7] = tested on: UACC-62 melanoma
[8] = tested on: U251 CNS
[9] = tested on: A549 NSCLC
[10] = tested on: DMS 114 small cell lung

Row | SMILES | TGI [1] [µM] | TGI [2] [µM] | TGI [3] [µM] | TGI [4] [µM] | TGI [5] [µM] | TGI [6] [µM] | TGI [7] [µM] | TGI [8] [µM] | TGI [9] [µM] | TGI [10] [µM] | GI50 [1] [µM] | GI50 [2] [µM] | GI50 [3] [µM] | GI50 [4] [µM] | GI50 [5] [µM] | GI50 [6] [µM] | GI50 [7] [µM] | GI50 [8] [µM] | GI50 [9] [µM]
1 | O=C(C(=O)n1ccc2ccccc21)c1c[nH]c2ccccc12 | > 10 | > 10 | > 10 | > 10 | > 10 | > 10 | > 10 | > 10 | > 10 | – | – | – | – | – | – | – | – | – | –
2 | CCC1OC(=O)C(C)C(OC2CC(C)(O)C(O)C(C)O2)C(C)C(O)C(C)(O)CC(C)C(=O)C(C)C(O)C1C (stereo not given) | > 300 | – | > 300 | > 300 | – | – | > 300 | > 300 | > 300 | > 300 | – | – | – | – | – | – | – | – | –
3 | O=C(Cl)c1cc([N+](=O)[O-])cc([N+](=O)[O-])c1 | > 100 | > 100 | – | > 100 | – | > 100 | > 100 | > 100 | > 100 | > 100 | – | – | – | – | – | – | – | – | –
4 | CC(C)NC(=O)OCc1c(COC(=O)NC(C)C)c(-c2ccc[n+](COC(=O)C3CCCCC3)c2)n2c1CCC2 | > 100 | > 100 | > 100 | > 100 | > 100 | > 100 | 87.4 | > 100 | > 100 | – | – | – | – | – | – | – | – | – | –
5 | CC(C)(C)OC(=O)N1CC(COS(C)(=O)=O)c2ccc(O)cc21 (stereo not given) | 4.59 | 5.31 | 4.07 | 9.54 | 8.41 | 3.14 | 3.2 | 9.69 | 10.7 | – | – | – | – | – | – | – | – | – | –
6 | Nc1cc(N)c2nc(-c3ccccc3)c(Sc3ccc(F)cc3)nc2c1 | 41.2 | > 100 | 34.7 | > 100 | 38 | 30.8 | 31.8 | 31.7 | 30.9 | – | 20.5 | 35.2 | 16.6 | 39.6 | 17.5 | 15.9 | 16.7 | 16.4 | 13.5
7 | c1ccc(C2(c3cc4ccccc4[nH]3)OCCO2)cc1 | > 100 | > 100 | > 100 | > 100 | > 100 | > 100 | > 100 | > 100 | > 100 | – | – | – | – | – | – | – | – | – | –
8 | Fc1ccccc1N=c1oc2ccc(Br)cc2cc1-c1nc2ccccc2[nH]1 | > 41.5 | > 100 | 65.7 | > 100 | 25.8 | 35.8 | 51.5 | 20.1 | 23.1 | – | – | – | – | – | – | – | – | – | –
9 | CCOC(=O)C1C(=O)C=C(c2cc(C)ccc2O)CC1c1cccc(Br)c1 (stereo not given) | 67.6 | 25.4 | 46.1 | 46.8 | 48.4 | 37 | 28 | 32 | 51.2 | – | – | – | – | – | – | – | – | – | –
10 | Cc1ccc(-c2cn3c(nc4ccccc43)c(C)n2)cc1 | > 100 | > 100 | > 100 | > 100 | > 100 | > 100 | > 81.3 | > 87.7 | > 100 | – | – | – | – | – | – | – | – | – | –
11 | C[N+](C)(C)CC(=O)N/N=C(\C(=O)Nc1ccc(Cl)cc1)C1C(=O)N(c2ccccc2)N=C1N (stereo not given) | > 100 | – | – | > 100 | – | > 100 | > 100 | > 100 | > 100 | > 100 | – | – | – | – | – | – | – | – | –
12 | COC(=O)[C@H]1ON2O[C@H](OC3CCCC[C@@H]3c3ccccc3)C[C@@H]3CC[C@H]1[C@@]32C (stereo not given in full) | > 100 | > 100 | > 100 | > 100 | > 100 | > 100 | > 100 | > 100 | > 100 | – | – | – | – | – | – | – | – | – | –
13 | O=C(O)CCCCCNC(=O)CCC(CN(CC(=O)OCc1ccccc1)CC(=O)OCc1ccccc1)N(CC(=O)OCc1ccccc1)CC(=O)OCc1ccccc1 (stereo not given) | 49 | 42 | 43.1 | 30.6 | 38.6 | 32.3 | 30.4 | 46.6 | 33.2 | – | – | – | – | – | – | – | – | – | –
14 | CN(C)CCCNc1ccc2nnn3c4ccc([N+](=O)[O-])cc4c(=O)c1c23 | 12.9 | 6.03 | 3.09 | 21.9 | 2.95 | 8.31 | 14.4 | 5.16 | 3.06 | 14.1 | – | – | – | – | – | – | – | – | –
15 | O=C(N/N=C/c1cc(-c2ccccc2Cl)c(-c2ccccc2Cl)o1)c1ccncc1 | > 100 | – | – | – | – | > 100 | > 100 | – | > 100 | > 100 | – | – | – | – | – | – | – | – | –
16 | COc1ccc(C2Oc3cc(OC)c(O)cc3[C@@H]2C)cc1 (stereo not given in full) | > 100 | – | – | > 100 | – | 51.2 | – | > 100 | > 100 | 40.3 | – | – | – | – | – | – | – | – | –
17 | Cc1cc(C)n(CN(Cn2nc(C)cc2C)c2ccc(N(Cn3nc(C)cc3C)Cn3nc(C)cc3C)cc2)n1 | 54.1 | > 100 | 43.2 | 50.3 | 88.1 | 36.5 | 44.9 | 91.1 | 89.1 | – | – | – | – | – | – | – | – | – | –
18 | O=C1NC(N2CCCC(CO)C2)=N/C1=C\c1ccc(O)cc1 (stereo not given) | > 100 | > 100 | > 100 | > 100 | > 100 | > 100 | > 100 | > 100 | > 100 | – | – | – | – | – | – | – | – | – | –
19 | N#Cc1c(C#N)c(-c2ccco2)n(/N=C/c2ccco2)c1N | > 100 | > 100 | > 100 | > 100 | 36.3 | > 100 | > 100 | 60.3 | > 100 | – | – | – | – | – | – | – | – | – | –
20 | O=C(c1ccccc1)c1cc(-c2ccccc2)c(-c2ccccc2)[nH]c(=O)c1=O | > 100 | 57.1 | > 100 | > 100 | > 100 | > 100 | 82.2 | > 100 | > 100 | – | – | – | – | – | – | – | – | – | –
21 | CC(C)OP(=O)(OC(C)C)c1ncn(-c2ccc([N+](=O)[O-])cc2)n1 | > 100 | > 100 | – | > 100 | – | > 100 | > 100 | > 100 | > 100 | > 100 | – | – | – | – | – | – | – | – | –
22 | CC(C)Oc1c(O)c2c3c(oc(=O)n3C=CC2c2ccccc2F)c1OC(C)C (stereo not given) | > 100 | 46.1 | > 100 | > 100 | > 100 | 65.4 | > 100 | > 100 | > 100 | – | – | – | – | – | – | – | – | – | –
